The values that follow come from patent publication US4530714A, “N-aliphatic and N,N-aliphatic phosphoric triamide urease inhibitors and urease inhibited urea based fertilizer compositions” (Allied Corporation, priority 1984, dated 1985).

For data set [1], the system named is urease. The experiment in a line: Soil urease inhibition efficacy test, Cazenovia silt loam (New York soil). Particulars: 25° C., three days; for % Inhibition Cazenovian pH 7.3: Cazenovia silt loam pH 7.3, 800 micrograms compound and 42.8 mg urea per 20 g soil; for % Inhibition Cazenovian pH 7.0: Cazenovia silt loam pH 7.0, 200 micrograms compound per 20 g soil. Format: biochemical. On the procedure:
(§1) Efficacy tests were conducted to evaluate the efficacy of certain representative phosphoric triamide compounds as urease inhibitors. The inhibition tests were run in a New York soil (Cazenovia silt loam, pH 7.0 or 7.3) or in a Wisconsin Soil (Plano silt loam, pH 5.3). […] The bottle was capped with perforated aluminum foil and incubated at 25° C. for three days prior to extraction with 100 mL of a 2M potassium chloride solution containing 0.5 mg of phenylmercuric acetate. The extracts were then analyzed for remaining urea using an autoanalyzer. Percent inhibition was calculated as
(§2) % Inhibition=[1-(A-B/A-C)]×100%
(§3) where A is urea recovered from unincubated sample (urea added to soil and immediately extracted); B is urea recovered from inhibited sample; and C is urea recovered from the control (uninhibited sample).

Data set [2] deals with urease. The experiment in a line: Soil urease inhibition efficacy test, Plano silt loam (Wisconsin soil). The format is biochemical. The conditions noted are these: Plano silt loam pH 5.3, 25° C., three days. On the procedure:
as §1, §2, §3

Data set [3] concerns urease. Put plainly: Long term urease inhibition, inhibited Cazenovia soil preincubated or left open 11 days before urea application. The format is biochemical. The conditions noted are these: 200 micrograms compound; for % Inhibition, Preincubated for 11 days Open: allowed to volatilize for 11 days prior to urea application; for % Inhibition, Preincubated for 11 days at 25° C.: inhibited soil incubated 11 days at 25° C. prior to urea application; for % Inhibition, Preincubated for 11 days at 35° C.: inhibited soil incubated 11 days at 35° C. prior to urea application. On the procedure:
Efficacy tests were conducted to evaluate the efficacy of certain representative phosphoric triamide compounds as urease inhibitors. The inhibition tests were run in a New York soil (Cazenovia silt loam, pH 7.0 or 7.3) or in a Wisconsin Soil (Plano silt loam, pH 5.3). Evaluations (run in triplicate) consisted of applying 800 micrograms of the test compound in 5 mL of water and 42.8 mg of urea in 1 mL of water to 20 g of air-dry soil in a glass bottle. The bottle was capped with perforated aluminum foil and incubated at 25° C. for three days prior to extraction with 100 mL of a 2M potassium chloride solution containing 0.5 mg of phenylmercuric acetate. The extracts were then analyzed for remaining urea using an autoanalyzer. Percent inhibition was calculated as
as §2, §3
The percent inhibition observed, as determined by the means described in Example XVI except using 200 micrograms of the test compound, are set forth in Table II

Data set [4] can be described thus: Solubility in water (as needed for efficacy test). Format: physicochemical. Particulars: efficacy test application.
In data set [5] the test system is urease. Put plainly: Percent inhibition versus time in soil (FIG. 1, FIG. 2). The format is biochemical. Particulars: soil at 25° C. (FIG. 1) and 35° C. (FIG. 2); compared with phenyl phosphorodiamidate. On the procedure:
FIG. 1 is a plot of percent inhibition versus time in soils at 25° C. for N,N-diethylphosphorictriamide, a urease inhibitor useful in the practice of this invention, and for the known urease inhibitor, phenyl phosphorodiamidate, and FIG. 2 is a plot of percent inhibition versus time in soil at 35° C. for the same compounds.

Where [6] appears, read: 800 micrograms compound and 42.8 mg urea per 20 g soil.
Where [7] appears, read: 200 micrograms compound per 20 g soil.

Turning to `NP(N)(=O)NC1CCCCC1` [Compound 5, N-Cyclohexylphosphoric Triamide], in data set [1], the “% Inhibition Cazenovian pH 7.3” value was 98%.

`CCCCNP(N)(N)=O` [Compound 9, N-(n-Butyl)phosphoric Triamide]: the “% Inhibition Wisconsin pH 5.3” value in data set [2] (setting [6]) was found to be 52%. Also, in data set [1], the “% Inhibition Cazenovian pH 7.3” value came to 99%. Further, in data set [3], the “% Inhibition, Preincubated for 11 days Open” value amounted to 78%; the “% Inhibition, Preincubated for 11 days at 25° C.” value (“% Inhibition … at 25° C.” for short) was found to be 75%; the “% Inhibition, Preincubated for 11 days at 35° C.” value (“% Inhibition … at 35° C.” for short) worked out at 68%; the “% Inhibition, No Preincubation” value is on record as 96%.

As to `NP(N)(=S)N1CCCCC1` [Compound 22, N-(Diaminothiophosphinyl)piperidine], the “% Inhibition Wisconsin pH 5.3” value in data set [2] (setting [7]) turned out to be 0%. The “% Inhibition Cazenovian pH 7.0” value in data set [1] is on record as 66%.

With `CC(C)N(C(C)C)P(N)(N)=S` [Compound 21, N,N-Diisopropylthiophosphoric Triamide], in data set [4], the solubility in water entry is “too insoluble in water to obtain significant data”.

Regarding `CC(C)NP(N)(N)=O` [Compound 7, N-Isopropylphosphoric Triamide], the “% Inhibition Cazenovian pH 7.3” value in data set [1] was found to be 97%.

As to `CN(Cc1ccccc1)P(N)(N)=O` [Compound 4, N-Benzyl-N-methylphosphoric Triamide], the “% Inhibition Cazenovian pH 7.3” value in data set [1] came out at 96%.

Consider `CCN(CC)P(N)(N)=O` [Compound 1, N,N-Diethylphosphoric Triamide], for which the “% Inhibition Cazenovian pH 7.3” value in data set [1] is recorded as 94%. For the same compound, the “duration of the urease inhibiting activity” value in data set [5] is recorded as “much superior”.

With `CN(C)P(N)(N)=O` [Compound 2, N,N-Dimethylphosphoric Triamide], the “% Inhibition Cazenovian pH 7.3” value in data set [1] was found to be 98%.

For `NP(N)(=S)NC1CCCCC1` [Compound 17, N-Cyclohexylthiophosphoric Triamide], in data set [2] (setting [7]), the “% Inhibition Wisconsin pH 5.3” value is reported as 58%. In addition, the “% Inhibition Cazenovian pH 7.0” value in data set [1] amounted to 84%.

In the case of `CCCCCCCCCCCCNP(N)(N)=O` [Compound 13, N-(n-Dodecyl)phosphoric Triamide], the “% Inhibition Wisconsin pH 5.3” value in data set [2] (setting [6]) was 28%. In addition, in data set [1], the “% Inhibition Cazenovian pH 7.3” value was found to be 81%.

Consider `CCCCCCNP(N)(N)=S` [Compound 18, N-(n-Hexyl)thiophosphoric Triamide], for which, in data set [2] (setting [7]), the “% Inhibition Wisconsin pH 5.3” value is 52%. For the same compound, the “% Inhibition Cazenovian pH 7.0” value in data set [1] was determined as 97%.

Turning to `CCC(C)NP(N)(N)=S` (stereo not shown) [Compound 20, N-(sec-Butyl)thiophosphoric Triamide], the “% Inhibition Wisconsin pH 5.3” value in data set [2] (setting [7]) was found to be 51%. The “% Inhibition Cazenovian pH 7.0” value in data set [1] stood at 65%.

Consider `CCCCN(CCCC)P(N)(N)=S` [Compound 23, N,N-Di-(n-Butyl)thiophosphoric Triamide], for which the “% Inhibition Wisconsin pH 5.3” value in data set [2] (setting [7]) is 37%. Also, in data set [1], the “% Inhibition Cazenovian pH 7.0” value worked out at 67%.

`CCN(CC)P(N)(N)=S` [Compound 14, N,N-Diethylthiophosphoric Triamide]: the “% Inhibition Wisconsin pH 5.3” value in data set [2] (setting [6]) amounted to 53%. Further, the “% Inhibition Cazenovian pH 7.3” value in data set [1] stood at 61%.

On to `C=CCNP(N)(N)=O` [Compound 3, N-Allylphosphoric Triamide], for which the “% Inhibition Cazenovian pH 7.3” value in data set [1] was determined as 93%.

Consider `CN(Cc1ccccc1)P(N)(N)=S` [Compound 16, N-Benzyl-N-methylthiophosphoric Triamide], for which, in data set [2] (setting [7]), the “% Inhibition Wisconsin pH 5.3” value stood at 24%. Besides, the “% Inhibition Cazenovian pH 7.0” value in data set [1] is 43%.

`NP(N)(=S)N1CCCC1` [Compound 19, N-(Diaminothiophosphinyl)pyrrolidine]: in data set [2] (setting [7]), the “% Inhibition Wisconsin pH 5.3” value is 23%. For the same compound, the “% Inhibition Cazenovian pH 7.0” value in data set [1] is reported as 77%.

Regarding `CCCCNP(N)(N)=S` [Compound 10, N-(n-Butyl)thiophosphoric Triamide], the “% Inhibition Wisconsin pH 5.3” value in data set [2] (setting [6]) was determined as 95%. Moreover, in data set [1], the “% Inhibition Cazenovian pH 7.3” value is 98%. For the same compound, in data set [3], the “% Inhibition, Preincubated for 11 days Open” value was determined as 94%; the “% Inhibition … at 25° C.” value stood at 98%; the “% Inhibition … at 35° C.” value came to 89%; the “% Inhibition, No Preincubation” value stood at 90%.

Consider `CCCCCCCCNP(N)(N)=O` [Compound 12, N-(n-Octyl)phosphoric Triamide], for which the “% Inhibition Wisconsin pH 5.3” value in data set [2] (setting [6]) turned out to be 51%. Besides, the “% Inhibition Cazenovian pH 7.3” value in data set [1] stood at 98%. In addition, in data set [3], the “% Inhibition, Preincubated for 11 days Open” value was 66%; the “% Inhibition … at 25° C.” value came to 39%; the “% Inhibition … at 35° C.” value turned out to be 36%; the “% Inhibition, No Preincubation” value worked out at 95%.

Regarding `CN(C1CCCCC1)P(N)(N)=O` [Compound 15, N-Cyclohexyl-N-methylphosphoric Triamide], the “% Inhibition Wisconsin pH 5.3” value in data set [2] (setting [6]) was 48%. In addition, the “% Inhibition Cazenovian pH 7.3” value in data set [1] worked out at 92%. For the same compound, in data set [3], the “% Inhibition, Preincubated for 11 days Open” value was found to be 67%; the “% Inhibition … at 25° C.” value was found to be 78%; the “% Inhibition … at 35° C.” value turned out to be 78%; the “% Inhibition, No Preincubation” value worked out at 80%.

`CCC(C)NP(N)(N)=O` (stereo not shown) [Compound 11, N-(sec-Butyl)phosphoric Triamide]: in data set [2] (setting [6]), the “% Inhibition Wisconsin pH 5.3” value came out at 66%. Further, the “% Inhibition Cazenovian pH 7.3” value in data set [1] was 96%. Further, in data set [3], the “% Inhibition, Preincubated for 11 days Open” value amounted to 77%; the “% Inhibition … at 25° C.” value amounted to 90%; the “% Inhibition … at 35° C.” value was 85%; the “% Inhibition, No Preincubation” value is recorded as 92%.

In the case of `NP(N)(=O)N1CCCCC1` [Compound 6, N-(Diaminophosphinyl)piperidine], in data set [1], the “% Inhibition Cazenovian pH 7.3” value worked out at 94%.

For `NP(N)(=O)Oc1ccccc1` [Phenyl Phosphorodiamidate, phenyl phosphorodiamidate, reference compound], in data set [3], the “% Inhibition, Preincubated for 11 days Open” value is 50%; the “% Inhibition … at 25° C.” value worked out at 26%; the “% Inhibition … at 35° C.” value is given as 16%; the “% Inhibition, No Preincubation” value is recorded as 76%.

As to `CCNP(N)(N)=O` [Compound 8, N-Ethylphosphoric Triamide], in data set [2] (setting [6]), the “% Inhibition Wisconsin pH 5.3” value worked out at 47%. Further, the “% Inhibition Cazenovian pH 7.3” value in data set [1] is reported as 99%. Also, in data set [3], the “% Inhibition, Preincubated for 11 days Open” value came to 72%; the “% Inhibition … at 25° C.” value was found to be 74%; the “% Inhibition … at 35° C.” value was found to be 55%; the “% Inhibition, No Preincubation” value came out at 95%.
